Test results: the OPERA property sets (Mansouri et al. 2018)

| Structure (SMILES) | logP |
| --- | --- |
| O=c1[nH]c(=O)n(C2CC(F)C(CO)O2)cc1Br (stereo not given) | -0.04 |
| Nc1nc(=O)c2ncn([C@H]3CC[C@@H](CO)O3)c2[nH]1 | -1.01 |
| O=c1ccn(C2CC(O)C(CO)O2)c(=O)[nH]1 (stereo not given) | -1.51 |
| O=c1ccn([C@H]2C=C[C@@H](CO)O2)c(=O)[nH]1 | -1.07 |
| O=c1ccn(C2CC(F)C(CO)O2)c(=O)[nH]1 (stereo not given) | -0.49 |
| Nc1ncnc2c1ncn2[C@H]1C[C@H](F)[C@@H](CO)O1 | 0.08 |
| O=c1[nH]c(=O)n(C2CC(F)C(CO)O2)cc1I (stereo not given) | 0.21 |
| O=c1[nH]c(=O)n([C@H]2CC[C@@H](CO)O2)cc1Cl | -1.11 |
| Cc1cn([C@H]2C[C@H](F)[C@@H](CO)O2)c(=O)[nH]c1=O | -0.28 |
| O=c1[nH]c(=O)n([C@H]2C[C@H](F)[C@@H](CO)O2)cc1Cl | -0.17 |
| O=c1[nH]c(=O)n(C2CCC(CO)O2)cc1Br (stereo not given) | -0.99 |
| Nc1nc(N)c2ncn(C3CC(O)C(CO)O3)c2n1 (stereo not given) | -0.52 |
| Nc1nc(=O)c2ncn([C@H]3C[C@H](F)[C@@H](CO)O3)c2[nH]1 | -0.66 |
| O=c1[nH]c(=O)n([C@H]2CC[C@@H](CO)O2)cc1I | -0.61 |
| [N-]=[N+]=N[C@H]1C[C@H](n2cnc3c(N)nc(N)nc32)O[C@@H]1CO | 0.24 |
| Nc1nc(N)c2ncn(C3CC(F)C(CO)O3)c2n1 (stereo not given) | 0.05 |
| [N-]=[N+]=NC1CC(n2ccc(=O)[nH]c2=O)OC1CO (stereo not given) | -0.32 |
| [N-]=[N+]=N[C@H]1C[C@H](n2cnc3c(N)ncnc32)O[C@@H]1CO | 0.35 |
| [N-]=[N+]=NC1C(CO)OC(n2cnc3c(N)ncnc32)C1N=[N+]=[N-] (stereo not given) | 0.8 |
| Nc1nc(=O)c2ncn([C@H]3C=C[C@@H](CO)O3)c2[nH]1 | -1.21 |
